This passage reports IC50, Kp and concentration results from US10730882B2, “2-aminoquinazoline derivatives as P70S6 kinase inhibitors” (SENTINEL ONCOLOGY LIMITED, priority 2015, dated 2020).

The target of data set [1] is p70S6K (h) (Homo sapiens (Human), UniProt P23443). Nature of the data set: p70S6K (h) kinase assay (radiometric, [γ-33P-ATP]). Format: biochemical. Conditions: read-out: (a) p70S6K1 IC50. How it is done:
(a) Determination of p70S6 Inhibitory Activity
The ability of compounds of the invention to inhibit P70S6 kinase may be determined using the protocol below.
20 mM MOPS, 1 mM EDTA, 0.01% Brij-35, 5% Glycerol, 0.1% b-mercaptoethanol, 1 mg/mL BSA
In a final reaction volume of 25 μL, p70S6K (h) (5-10 mU) is incubated with 8 mM MOPS pH 7.0, 0.2 mM EDTA, 100 μM KKRNRTLTV, 10 mM Mg acetate and [γ-33P-ATP](specific activity approx. 500 cpm/pmol, concentration as required). The reaction is initiated by the addition of the MgATP mix. After incubation for 40 minutes at room temperature, the reaction is stopped by the addition of 5 μL of a 3% phosphoric acid solution. 10 μL of the reaction mixture is then spotted onto a P30 filtermat and washed three times for 5 minutes in 75 mM phosphoric acid and once in methanol prior to drying and scintillation counting.

A short description of data set [2]: in vivo cassette mouse model: brain and plasma concentrations following oral dosing. Conditions: male CD-1 mice, 2.5 mg/kg per compound; for Kp at 3 h: brain and plasma, read-out: (b) Brain:Plasma ratio at 3 hours. How it is done:
(b) Evaluation of Brain and Plasma Concentrations in an In Vivo Cassette Mouse Model
The compounds of this invention were evaluated in an in vivo cassette mouse model to determine brain and plasma concentrations following oral dosing. This is an industry-standard and recognised means to assess brain penetration of small molecules (for recent literature article, refer to: in vitro permeability analysis, pharmacokinetic and brain distribution study in mice of imperatorin, isoimperatorin and cnidilin in Radix Angelicae Dahuricae, Fitoterapia, Volume 85, March 2013, Pages 144-153). It is also recognised that higher brain concentrations (and higher ratios of brain:plasma concentration) lead to greater exposure in the brain—this is clearly advantageous if the brain is the site of action.
For a single cassette study, male CD-1 mice were used (n=3 per timepoint, three timepoints: 1.0 hr, 3.0 hr and 8.0 hr).
5 compounds were dosed PO per cassette (dose level 2.5 mg/kg per compound, dose conc. 0.25 mg/ml, dose volume 10.0 ml/kg).
Formulation used to solubilize compounds: 10% DMSO/90% hydroxypropyl-β-cyclodextrin (20% w/v aqueous)
Sampling was terminal and plasma and brain matrices were generated. To prepare plasma samples, protein was precipitated using acetonitrile. To prepare brain samples, homogenisation and protein precipitation was performed with acetonitrile. Samples were analysed using HPLC-TOF MS using electrospray ionisation.
The brain and plasma concentrations and brain-plasma ratios observed for the compounds tested are set out in the table below.

The mark [3] stands for this setting: brain, read-out: (b) Brain conc. at 3 hours.
The mark [4] stands for this setting: plasma, read-out: (b) Plasma conc. at 3 hours.

Read-outs that look alike come from different tables or passages of the source.

Chain of p70S6K (h) (P23443 whole entry): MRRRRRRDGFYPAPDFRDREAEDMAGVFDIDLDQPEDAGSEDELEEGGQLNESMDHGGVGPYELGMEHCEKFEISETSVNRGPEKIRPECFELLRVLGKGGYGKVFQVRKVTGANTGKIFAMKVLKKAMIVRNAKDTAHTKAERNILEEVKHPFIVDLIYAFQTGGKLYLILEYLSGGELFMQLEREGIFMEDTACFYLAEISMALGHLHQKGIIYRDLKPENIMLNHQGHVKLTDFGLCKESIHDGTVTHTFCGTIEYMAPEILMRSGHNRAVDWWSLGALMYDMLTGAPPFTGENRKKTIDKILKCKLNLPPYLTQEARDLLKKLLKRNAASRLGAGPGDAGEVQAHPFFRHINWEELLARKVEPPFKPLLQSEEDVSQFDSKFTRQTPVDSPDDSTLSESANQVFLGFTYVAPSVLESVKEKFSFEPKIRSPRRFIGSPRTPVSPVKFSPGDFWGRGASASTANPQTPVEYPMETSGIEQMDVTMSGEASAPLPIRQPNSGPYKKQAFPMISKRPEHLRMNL

For `C[C@@H](Nc1ncc2cc(-c3ncnc4[nH]ncc34)ccc2n1)c1cccc(Cl)c1` [Example 2, ((R)-1-(3-Chloro-phenyl)-ethyl)-[6-(1H-pyrazolo[3,4-d]pyrimidin-4-yl)-quinazolin-2-yl]-amine], in data set [1], the IC50 (commonly the point on the concentration scale where inhibition reaches its midpoint) is 30 nM.

Take `C[C@@H](Nc1ncc2cc(-c3ncnc4[nH]ncc34)ccc2n1)c1cccc(F)c1` [Example 3, ((R)-1-(3-Fluoro-phenyl)-ethyl)-[6-(1H-pyrazolo[3,4-d]pyrimidin-4-yl)-quinazolin-2-yl]-amine]: the IC50 in data set [1] is 21 nM. For the same molecule, the Kp at 3 h in data set [2] was 3.7. The concentration at 3 h in data set [2] (setting [3]) was 1680 nM; in data set [2] (setting [4]), 460 nM.

On to `C[C@@H](Nc1ncc2cc(-c3ncnc4[nH]ncc34)ccc2n1)c1ccc(F)cc1` [Example 4, ((R)-1-(4-Fluoro-phenyl)-ethyl)-[6-(1H-pyrazolo[3,4-d]pyrimidin-4-yl)-quinazolin-2-yl]-amine], for which the IC50 in data set [1] is 22 nM. In data set [2], the Kp at 3 h stood at 2.2. The concentration at 3 h in data set [2] (setting [3]) amounted to 1510 nM; in data set [2] (setting [4]), 680 nM.

`OC[C@@H](Nc1ncc2cc(-c3ncnc4[nH]ncc34)ccc2n1)c1ccccc1` [Example 5, ((S)-2-Hydroxy-1-phenyl-ethyl)-[6-(1H-pyrazolo[3,4-d]pyrimidin-4-yl)-quinazolin-2-yl]-amine]: the IC50 in data set [1] came to 24 nM.

Consider `CN(Cc1ccc(F)cc1)c1ncc2cc(-c3ncnc4[nH]ncc34)ccc2n1` [Example 6, (4-Fluorobenzyl)-[6-(1H-pyrazolo[3,4-d]pyrimidin-4-yl)-quinazolin-2-yl]-methylamine], for which, in data set [1], the IC50 came out at 147 nM.

On to `CN(Cc1ccccc1)c1ncc2cc(-c3ncnc4[nH]ncc34)ccc2n1` [Example 7, Benzyl-[6-(1H-pyrazolo[3,4-d]pyrimidin-4-yl)-quinazolin-2-yl]-methylamine], for which the IC50 in data set [1] was determined as 33 nM.

On to `C[C@H](c1ccccc1)N(C)c1ncc2cc(-c3ncnc4[nH]ncc34)ccc2n1` [Example 8, ((R)-1-Phenyl-ethyl)-[6-(1H-pyrazolo[3,4-d]pyrimidin-4-yl)-quinazolin-2-yl]-methylamine], for which the IC50 in data set [1] came out at 108 nM.

Consider `Fc1ccc(CNc2ncc3cc(-c4ncnc5[nH]ncc45)ccc3n2)cc1` [Example 9, (4-Fluorobenzyl)-[6-(1H-pyrazolo[3,4-d]pyrimidin-4-yl)-quinazolin-2-yl]-amine], for which, in data set [1], the IC50 is 55 nM.

As to `Clc1cccc(CNc2ncc3cc(-c4ncnc5[nH]ncc45)ccc3n2)c1` [Example 11, (3-Chlorobenzyl)-[6-(1H-pyrazolo[3,4-d]pyrimidin-4-yl)-quinazolin-2-yl]-amine], in data set [1], the IC50 was 145 nM.

As for `C[C@@H](Nc1ncc2ccc(-c3ncnc4[nH]ncc34)cc2n1)c1ccccc1` [Example 12, ((R)-1-Phenyl-ethyl)-[7-(1H-pyrazolo[3,4-d]pyrimidin-4-yl)-quinazolin-2-yl]-amine], the IC50 in data set [1] was > 3000 nM.

In the case of `C[C@@H](Nc1ncc2cc(-c3ccnc4[nH]ncc34)ccc2n1)c1ccccc1` [Example 13, ((R)-1-Phenyl-ethyl)-[6-(1H-pyrazolo[3,4-b]pyridin-4-yl)-quinazolin-2-yl]-amine], the IC50 in data set [1] came to 43 nM.

Regarding `C[C@@H](Nc1ncc2cc(-c3ncnc4[nH]ccc34)ccc2n1)c1ccccc1` [Example 14, ((R)-1-Phenyl-ethyl)-[6-(7H-pyrrolo[2,3-d]pyrimidin-4-yl)-quinazolin-2-yl]-amine], in data set [1], the IC50 was found to be 57 nM.

With `C[C@@H](Nc1ncc2cc(-c3ccnc4[nH]ccc34)ccc2n1)c1ccccc1` [Example 15, ((R)-1-Phenyl-ethyl)-[6-(1H-pyrrolo[2,3-b]pyridin-4-yl)-quinazolin-2-yl]-amine], the IC50 in data set [1] amounted to 97 nM.

As to `CN(C)CCN(Cc1ccccc1)c1ncc2cc(-c3ncnc4[nH]ncc34)ccc2n1` [Example 16, N-Benzyl-N′,N′-dimethyl-N-[6-(1H-pyrazolo[3,4-d]pyrimidin-4-yl)-quinazolin-2-yl]-ethane-1,2-diamine], the IC50 in data set [1] was determined as 106 nM.

`c1ccc(CN(C[C@@H]2COCCN2)c2ncc3cc(-c4ncnc5[nH]ncc45)ccc3n2)cc1` [Example 17, Benzyl-(R)-1-morpholin-3-ylmethyl-[6-(1H-pyrazolo[3,4-d]pyrimidin-4-yl)-quinazolin-2-yl]-amine]: the IC50 in data set [1] worked out at 110 nM.

Regarding `c1ccc(CN(C[C@H]2COCCN2)c2ncc3cc(-c4ncnc5[nH]ncc45)ccc3n2)cc1` [Example 18, Benzyl-(S)-1-morpholin-3-ylmethyl-[6-(1H-pyrazolo[3,4-d]pyrimidin-4-yl)-quinazolin-2-yl]-amine], the IC50 in data set [1] amounted to 25 nM.

In the case of `C[C@@H](Nc1ncc2cc(-c3ncnc4[nH]cnc34)ccc2n1)c1ccccc1` [Example 20, ((R)-1-Phenyl-ethyl)-[6-(9H-purin-6-yl)-quinazolin-2-yl]-amine], the IC50 in data set [1] came out at 167 nM.

For the molecule `c1ccc(CNc2ncc3cc(-c4ncnc5[nH]ncc45)ccc3n2)cc1` [Example 21, Benzyl-[6-(1H-pyrazolo[3,4-d]pyrimidin-4-yl)-quinazolin-2-yl]-amine], the IC50 in data set [1] stood at 71 nM.

As to `Cc1n[nH]c2ncnc(-c3ccc4nc(N[C@H](C)c5ccccc5)ncc4c3)c12` [Example 22, [6-(3-Methyl-1H-pyrazolo[3,4-d]pyrimidin-4-yl)-quinazolin-2-yl]-((R)-1-phenyl-ethyl)-amine], the IC50 in data set [1] worked out at 131 nM.

With `COc1cccc(CNc2ncc3cc(-c4ncnc5[nH]ncc45)ccc3n2)c1` [Example 23, (3-Methoxy-benzyl)-[6-(1H-pyrazolo[3,4-d]pyrimidin-4-yl)-quinazolin-2-yl]-amine], in data set [1], the IC50 was determined as 118 nM.

Turning to `Fc1ccccc1CNc1ncc2cc(-c3ncnc4[nH]ncc34)ccc2n1` [Example 24, (2-Fluoro-benzyl)-[6-(1H-pyrazolo[3,4-d]pyrimidin-4-yl)-quinazolin-2-yl]-amine], in data set [1], the IC50 is 204 nM.

With `Fc1ccc(CNc2ncc3cc(-c4ncnc5[nH]ncc45)ccc3n2)cc1F` [Example 25, (3,4-Difluoro-benzyl)-[6-(1H-pyrazolo[3,4-d]pyrimidin-4-yl)-quinazolin-2-yl]-amine], the IC50 in data set [1] is 49 nM.

Consider `CS(=O)(=O)Nc1cccc(CNc2ncc3cc(-c4ncnc5[nH]ncc45)ccc3n2)c1` [Example 26, N-(3-{[6-(1H-Pyrazolo[3,4-d]pyrimidin-4-yl)-quinazolin-2-ylamino]-methyl}-phenyl)-methanesulfonamide], for which the IC50 in data set [1] is 67 nM.

For `COc1cccc([C@@H](C)Nc2ncc3cc(-c4ncnc5[nH]ncc45)ccc3n2)c1` [Example 27, [(R)-1-(3-Methoxy-phenyl)-ethyl]-[6-(1H-pyrazolo[3,4-d]pyrimidin-4-yl)-quinazolin-2-yl]-amine], the IC50 in data set [1] stood at 41 nM.

Consider `C[C@H](Nc1ncc2cc(-c3ncnc4[nH]ncc34)ccc2n1)c1ccccc1` [Example 29, ((S)-1-Phenyl-ethyl)-[6-(1H-pyrazolo[3,4-d]pyrimidin-4-yl)-quinazolin-2-yl]-amine], for which, in data set [1], the IC50 was > 3000 nM.

With `C[C@@H](Nc1ncc2cc(-c3ncnc4[nH]ncc34)ccc2n1)c1cccc(NS(C)(=O)=O)c1` [Example 30, N-(3-{(R)-1-[6-(1H-Pyrazolo[3,4-d]pyrimidin-4-yl)-quinazolin-2-ylamino]-ethyl}-phenyl)-methanesulfonamide], in data set [1], the IC50 was 23 nM.

For `OCC[C@@H](Nc1ncc2cc(-c3ncnc4[nH]ncc34)ccc2n1)c1ccccc1` [Example 31, (R)-3-Phenyl-3-[6-(1H-pyrazolo[3,4-d]pyrimidin-4-yl)-quinazolin-2-ylamino]-propan-1-ol], the IC50 in data set [1] came to 10 nM.

For the molecule `C[C@@H](Nc1ncc2cc(-c3ncnc4[nH]ncc34)ccc2n1)c1c(F)cccc1F` [Example 33, [(R)-1-(2,6-Difluoro-phenyl)-ethyl]-[6-(1H-pyrazolo[3,4-d]pyrimidin-4-yl)-quinazolin-2-yl]-amine], the IC50 in data set [1] worked out at 28 nM.

In the case of `C[C@@H](Nc1ncc2cc(-c3ncnc4[nH]cc(C#N)c34)ccc2n1)c1ccccc1` [Example 34, 4-[2-((R)-1-Phenyl-ethylamino)-quinazolin-6-yl]-7H-pyrrolo[2,3-d]pyrimidine-5-carbonitrile], the IC50 in data set [1] was 346 nM.

Consider `C[C@@H](Nc1ncc2cc(-c3ncnc4[nH]ncc34)ccc2n1)c1ccccc1O` [Example 35, 2-{(R)-1-[6-(1H-Pyrazolo[3,4-d]pyrimidin-4-yl)-quinazolin-2-ylamino]-ethyl}-phenol], for which the IC50 in data set [1] was 20 nM.
